Source: PubChem BioAssay AID1963974 (Molecular Pharmacology Branch, DTP, NCI, 2024)
Values joined by “and” are separate entries in the source; they are usually repeats but may differ in a detail not shown here. Equal entries are not always repeated.

System: 648629-189-R-J1-PDC spheroids with HUVEC/MSC, viability
Experiment: Anticancer human tumor 648629-189-R-J1-PDC patient-derived bladder carcinoma cell line growth inhibition [PI3K]
Details: for viability, T/C: stronger effect = lower value
In short: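 We assembled tumor spheroids that included a stromal compartment of HUVEC and MSCs, then exposed them to targeted agents alone and together with PI3K pathway inhibitors. Concentration series descended by half-log from clinically achievable Cmax levels. Viability served as the endpoint.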
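Note: spheroids exposed to agents for seven days before reading.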
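Throughout, for viability, T/C: percent of vehicle control luminescence where 100% = DMSO treated spheroids.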

Q: With `CNC(=O)c1ccc(N2C(=S)N(c3ccc(C#N)c(C(F)(F)F)c3)C(=O)C2(C)C)cc1F` + COc1c(OCCCN2CCOCC2)ccc2c3n(c(=NC(=O)c4cnc(N)nc4)nc12)CCN3 as the compound, how does the IC50 (curve of first compound, second compound 0.00316 µM) read?
A: > 10 µM

Q: And the IC50 (curve of first compound, second compound 0.01 µM)?
A: > 10 µM

Q: And the IC50 (curve of first compound, second compound 0.0316 µM)?
A: > 10 µM

Q: And the IC50 (curve of first compound, second compound 0.1 µM)?
A: > 10 µM

Q: What about the IC50 (curve of first compound, second compound 0.316 µM) of the same compound?
A: < 0.0316 µM

Q: And the IC50 (curve of first compound, second compound 1 µM)?
A: < 0.0316 µM

Q: And the viability, T/C (second compound 0.00316 µM, first compound 0.0316 µM)?
A: 107%

Q: And the viability, T/C (second compound 0.00316 µM, first compound 0.1 µM)?
A: 103%

Q: And the viability, T/C (second compound 0.00316 µM, first compound 0.316 µM)?
A: 113%

Q: And the viability, T/C (second compound 0.00316 µM, first compound 1 µM)?
A: 116%

Q: What about the viability, T/C (second compound 0.00316 µM, first compound 3.16 µM) of the same compound?
A: 121%

Q: What about the viability, T/C (second compound 0.00316 µM, first compound 10 µM) of the same compound?
A: 97.7%

Q: What about the viability, T/C (second compound 0.01 µM, first compound 0.0316 µM) of the same compound?
A: 117%

Q: And the viability, T/C (second compound 0.01 µM, first compound 0.1 µM)?
A: 108%

Q: And the viability, T/C (second compound 0.01 µM, first compound 0.316 µM)?
A: 102%

Q: What about the viability, T/C (second compound 0.01 µM, first compound 1 µM) of the same compound?
A: 103%

Q: What about the viability, T/C (second compound 0.01 µM, first compound 3.16 µM) of the same compound?
A: 107%

Q: And the viability, T/C (second compound 0.01 µM, first compound 10 µM)?
A: 81.1%

Q: And the viability, T/C (second compound 0.0316 µM, first compound 0.0316 µM)?
A: 93.7%

Q: What about the viability, T/C (second compound 0.0316 µM, first compound 0.1 µM) of the same compound?
A: 92.2%

Q: What about the viability, T/C (second compound 0.0316 µM, first compound 0.316 µM) of the same compound?
A: 114%

Q: What about the viability, T/C (second compound 0.0316 µM, first compound 1 µM) of the same compound?
A: 101%

Q: And the viability, T/C (second compound 0.0316 µM, first compound 3.16 µM)?
A: 98.6%

Q: What about the viability, T/C (second compound 0.0316 µM, first compound 10 µM) of the same compound?
A: 84%

Q: And the viability, T/C (second compound 0.1 µM, first compound 0.0316 µM)?
A: 66%

Q: And the viability, T/C (second compound 0.1 µM, first compound 0.1 µM)?
A: 73.9%

Q: And the viability, T/C (second compound 0.1 µM, first compound 0.316 µM)?
A: 72.8%

Q: And the viability, T/C (second compound 0.1 µM, first compound 1 µM)?
A: 74.8%

Q: What about the viability, T/C (second compound 0.1 µM, first compound 3.16 µM) of the same compound?
A: 62.9%

Q: What about the viability, T/C (second compound 0.1 µM, first compound 10 µM) of the same compound?
A: 67.5%

Q: What about the viability, T/C (second compound 0.316 µM, first compound 0.0316 µM) of the same compound?
A: 20.7%

Q: What about the viability, T/C (second compound 0.316 µM, first compound 0.1 µM) of the same compound?
A: 26.3%

Q: What about the viability, T/C (second compound 0.316 µM, first compound 0.316 µM) of the same compound?
A: 28.3%

Q: What about the viability, T/C (second compound 0.316 µM, first compound 1 µM) of the same compound?
A: 25.5%

Q: And the viability, T/C (second compound 0.316 µM, first compound 3.16 µM)?
A: 24.8%

Q: And the viability, T/C (second compound 0.316 µM, first compound 10 µM)?
A: 25.9%

Q: What about the viability, T/C (second compound 1 µM, first compound 0.0316 µM) of the same compound?
A: 4.11%

Q: What about the viability, T/C (second compound 1 µM, first compound 0.1 µM) of the same compound?
A: 3.82%

Q: And the viability, T/C (second compound 1 µM, first compound 0.316 µM)?
A: 3.77%

Q: And the viability, T/C (second compound 1 µM, first compound 1 µM)?
A: 4.37%

Q: And the viability, T/C (second compound 1 µM, first compound 3.16 µM)?
A: 3.8%

Q: What about the viability, T/C (second compound 1 µM, first compound 10 µM) of the same compound?
A: 3.34%

Q: Which viability, T/C (compound 0.0316 µM) does the source give for `C=CC(=O)N1CCN(c2nc(=O)n(-c3c(C)ccnc3C(C)C)c3nc(-c4c(O)cccc4F)c(F)cc23)C(C)C1` (centres undefined) here?
A: 112% [middle of 4 runs]

Q: What about the viability, T/C (compound 0.1 µM) of the same compound?
A: 103% (2×) and 102% and 99.5%

Q: And the viability, T/C (compound 0.316 µM)?
A: 110% and 107% (2×) and 100%

Q: And the viability, T/C (compound 1 µM)?
A: 109% [middle of 4 runs]

Q: And the viability, T/C (compound 3.16 µM)?
A: 105% [middle of 4 runs]

Q: And the viability, T/C (compound 10 µM)?
A: 96% [middle of 4 runs]

Q: And the IC50 (curve of compound)?
A: > 10 µM
